Measurements from patent US9867799B2, “Diethyl-[6-(4-hydroxycarbamoyl-phenyl-carbamoyloxy-methyl)-naphthalen-2-yl-methyl]-ammonium chloride for use in the treatment of muscular dystrophy” (ITALFARMACO S.P.A., priority 2012, dated 2018).

Legend:
dogs, rats and monkeys = experiment: Repeated dose toxicity studies; assay type: in vivo; settings: oral daily doses up to nine consecutive months
Protocol: To date more than 500 patients (including 29 children) have been treated with Givinostat. Repeated dose toxicity studies were carried out in dogs, rats and monkeys. Oral daily doses of the drug were administered up to nine consecutive months. […] The “no adverse effect levels” (NOAEL) ranged from 10 to 25 mg/kg/day depending on the animal species and the duration of treatment.

juvenile animals = experiment: Juvenile animal toxicity (development and reproductive performance); assay type: in vivo; settings: 60 mg/kg/day
mouse lymphoma = experiment: Mouse lymphoma assay in vitro (genotoxicity); assay type: cell-based
[1] = Chromosomal aberration assay in vitro (genotoxicity); assay type: cell-based
[2] = Micronucleus test in vivo (genotoxicity)
[3] = UDS test in vivo (genotoxicity)
[4] = system: children with Systemic Onset Juvenile Idiopathic Arthritis; settings: 1.5 mg/kg/day for twelve weeks; cited from earlier work

Substance: diethyl-[6-(4-hydroxycarbamoyl-phenyl-carbamoyloxy-methyl)-naphthalen-2-yl-methyl]-ammonium chloride [Givinostat]
- tolerability / overt toxicity (dogs, rats and monkeys): well tolerated with no overt toxicity at high doses
- behavioural and physical development and reproductive performance of pups (juvenile animals): did not affect the behavioural and physical development and reproductive performance of pups
- genotoxic effect (mouse lymphoma): No genotoxic effect
- genotoxic effect [1]: No genotoxic effect
- genotoxic effect [2]: No genotoxic effect
- genotoxic effect [3]: No genotoxic effect
- ACR Pedi 30, 50 and 70 improvement [4]: approximately 70%
- adverse effects [4]: only a limited number of mild or moderate but short lasting, adverse effects
